Results on 1 molecule are retold here after article PMC10489644, “In Vitro Evaluation of the Potential for Drug Interactions by Salidroside” (Nutrients, 2023).

One series deals with T1, OATP1B3 (Homo sapiens, UniProt Q9NPD5).
T1 sequence (Q9NPD5 1-702): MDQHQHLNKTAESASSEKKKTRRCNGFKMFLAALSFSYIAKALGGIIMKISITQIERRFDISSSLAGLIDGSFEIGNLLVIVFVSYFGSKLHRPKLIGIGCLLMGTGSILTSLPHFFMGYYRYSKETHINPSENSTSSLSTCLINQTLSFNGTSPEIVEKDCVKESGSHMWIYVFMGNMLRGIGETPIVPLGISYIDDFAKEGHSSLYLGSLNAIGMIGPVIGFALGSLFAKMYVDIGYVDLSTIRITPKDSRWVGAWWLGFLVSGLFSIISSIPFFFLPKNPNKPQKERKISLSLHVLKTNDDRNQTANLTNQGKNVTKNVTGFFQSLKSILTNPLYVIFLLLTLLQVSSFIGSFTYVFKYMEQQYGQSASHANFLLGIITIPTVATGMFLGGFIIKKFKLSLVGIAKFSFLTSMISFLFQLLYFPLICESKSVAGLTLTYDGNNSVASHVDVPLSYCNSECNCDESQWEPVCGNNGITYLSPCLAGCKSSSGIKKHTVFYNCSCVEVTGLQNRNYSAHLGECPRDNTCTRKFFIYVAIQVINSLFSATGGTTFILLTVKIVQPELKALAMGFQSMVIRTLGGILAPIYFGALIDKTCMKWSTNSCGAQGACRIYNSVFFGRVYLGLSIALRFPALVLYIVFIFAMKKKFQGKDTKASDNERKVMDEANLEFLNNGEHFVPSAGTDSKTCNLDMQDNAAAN
Description: Uptake transport inhibition in HEK293-OATP1B3 cells. The method, then: HEK293-OATP1B1 and OATP1B3 cells were diluted to 1 × 10^6 cells/mL with DMEM supplemented with 1% non-essential amino acid (NEAA), 10% fetal bovine serum (FBS), 1% PS solution (100 U/mL penicillin-G and 100 μg/mL streptomycin), and seeded on a 96-well BioCoat™ poly-d-lysine plate at a density of 1 × 10^6 cells/mL. […] Once the cells were anchored on the plate, the cell culture was replaced with DMEM containing 10% FBS and 1% PS solution (100 U/mL penicillin-G and 100 μg/mL streptomycin solution) and cultured one day for the uptake and inhibition studies. The cell culture medium was removed from the 96-well plate, then rinsed twice with 0.1 mL/well of pre-warmed transport buffer. The transporter cells containing pre-incubation solution were pre-incubated at 37 °C for 30 min. Then the pre-incubation solution was removed and replaced with 0.1 mL/well of dosing solution containing a substrate, respectively (blank transporter buffer containing a substrate, transport buffer containing a substrate and PC, and transport buffer containing a substrate and salidroside). Then, the transporter cells were incubated at 37 °C for 2 min. After incubation, all solutions in the cells were discarded and rinsed with 0.10 mL/well of ice-cold transport buffer (4 °C) three times. […] All samples were shaken and centrifuged at 4000 rpm at 4 °C for 15 min and the supernatant was removed for future analysis by LC-MS/MS.
Enzyme activity (%) = PAR with compound/PAR vehicle × 100.

The target of series [1] is T2, CYP2C19 (Homo sapiens, UniProt P33261). As to the kind of experiment: CYP direct inhibition in human liver microsomes.
Description: (§1) Test compound/controls working solution or DMSO were added in 238.5 µL of liver microsomes working solution, mixed well by pipetting several times and pre-incubated in a 37 °C shaking water bath for 5 min. Following the pre-incubation, 60 µL of NADPH working solution were added, mixed well by pipetting several times, and incubated in a 37 °C shaking water bath for 10 min. Following the incubation, 300 µL of quenching solution were immediately added and vortexed for ~20 s to mix. All samples were centrifuged at 4000 rpm for 15 min at 4 °C and then the supernatant was transferred for LC-MS/MS analysis. IC50 values were determined by the Hill slope equation using Graph Pad Prism.
(§2) For competitive and time-dependent CYP inhibition, the peak area ratios (PAR) of analyte/internal standard were used to semi-quantitatively determine the concentration of acetaminophen (CYP1A2 activity), 4’-hydroxydiclofenac (CYP2C9), 4’-hydroxymephenytoin (CYP2C19), dextrorphan (CYP2D6), 1’-hydroxymidazolam (CYP3A4), 6β-hydroxytestosterone (CYP3A4), hydroxybupropion (CYP2B6), and N-desethylamodiaquine (CYP2C8), with terfenadine as the internal standard by LC-MS/MS method. The HPLC-MS system utilized an Acquity UPLC system and Sciex API 4000 mass spectrometer in ESI positive mode, with quantitation employing MRM. Samples were injected onto an Atlantis T3 5 μM column (2.1 x 50 mm). […]
The target of another series is CYP2D6 (Homo sapiens, UniProt P10635). Description: Time-dependent inhibition (IC50 shift) in human liver microsomes.
The nature of a further series: in vitro. The following applies: human, plasma, pH 7.4.
For a further series, the system named is CYP3A4/5. As to the kind of experiment: in vitro. Particulars: human, microsomes.
The target in series [2] is T2, CYP2C19. Particulars: microsomes.
Description: (§3) Incubation without 30 min pre-incubation, 178.5 µL of liver microsomes working was pre-incubated in a 37 °C water bath for 30 min. After the pre-incubation, 1.5 μL of test compound or control compound working solution, 60 μL of substrate working solution, and 60 μL of NADPH working solution were added; then, the reaction mixture was mixed by pipetting up and down and then incubated at 37 °C for 10 min. Incubation with 30 min pre-incubation. Next, 1.5 μL of test compound or control compound working solutions and 60 μL of NADPH working solution were added into 178.5 μL of liver microsome working solution, then the reaction mixture was mixed by pipetting up and down and then pre-incubated at 37 °C for 30 min. […]
(§4) For competitive and time-dependent CYP inhibition, the peak area ratios (PAR) of analyte/internal standard were used to semi-quantitatively determine the concentration of acetaminophen (CYP1A2 activity), 4’-hydroxydiclofenac (CYP2C9), 4’-hydroxymephenytoin (CYP2C19), dextrorphan (CYP2D6), 1’-hydroxymidazolam (CYP3A4), 6β-hydroxytestosterone (CYP3A4), hydroxybupropion (CYP2B6), and N-desethylamodiaquine (CYP2C8), with terfenadine as the internal standard by LC-MS/MS method. The HPLC-MS system utilized an Acquity UPLC system and Sciex API 4000 mass spectrometer in ESI positive mode, with quantitation employing MRM. […]
A short description of series [3]: Estimation of maximum human plasma concentration. The method, then:
An estimation of the maximum plasma concentration of salidroside in humans was made from the pharmacokinetics in rats after oral dosing and the recommended human daily dose of salidroside of 60 mg (two 30 mg capsules). Male Sprague–Dawley rats were dosed either with IV or orally at 12 mg/kg (N = 6/group). Salidroside was moderately cleared (21 mL/min/kg) and well absorbed orally.

Another series has as its target T3, CYP1A2 (Homo sapiens, UniProt P05177).
T3 construct: Mixed human liver microsomes were purchased from BioreclamationIVT; tissue BioreclamationIVT; host or cells: mixed-donor pool of human liver microsomes (Lot ZZQ)
T3 sequence (P05177 1-516): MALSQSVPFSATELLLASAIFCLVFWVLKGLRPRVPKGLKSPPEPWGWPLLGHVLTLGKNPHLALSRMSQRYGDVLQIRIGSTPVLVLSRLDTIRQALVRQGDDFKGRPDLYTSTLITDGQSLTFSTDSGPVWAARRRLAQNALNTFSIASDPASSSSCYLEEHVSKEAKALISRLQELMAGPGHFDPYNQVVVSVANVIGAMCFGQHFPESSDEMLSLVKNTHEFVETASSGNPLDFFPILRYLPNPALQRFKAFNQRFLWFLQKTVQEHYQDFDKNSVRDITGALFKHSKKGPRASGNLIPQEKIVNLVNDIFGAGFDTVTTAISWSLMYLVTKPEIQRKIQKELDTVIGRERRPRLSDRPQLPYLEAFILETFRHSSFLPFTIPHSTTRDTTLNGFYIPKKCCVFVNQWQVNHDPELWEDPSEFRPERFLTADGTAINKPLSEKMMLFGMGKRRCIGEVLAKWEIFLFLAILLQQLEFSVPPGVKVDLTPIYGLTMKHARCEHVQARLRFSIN
As to the kind of experiment: Time-dependent inhibition (IC50 shift) in human liver microsomes. It counts as in vitro ADME.

Entries after “also recorded” stand apart in the source; their conditions may differ. Read-outs that look alike come from different tables or passages of the source.

T2 sequence (P33261 whole entry): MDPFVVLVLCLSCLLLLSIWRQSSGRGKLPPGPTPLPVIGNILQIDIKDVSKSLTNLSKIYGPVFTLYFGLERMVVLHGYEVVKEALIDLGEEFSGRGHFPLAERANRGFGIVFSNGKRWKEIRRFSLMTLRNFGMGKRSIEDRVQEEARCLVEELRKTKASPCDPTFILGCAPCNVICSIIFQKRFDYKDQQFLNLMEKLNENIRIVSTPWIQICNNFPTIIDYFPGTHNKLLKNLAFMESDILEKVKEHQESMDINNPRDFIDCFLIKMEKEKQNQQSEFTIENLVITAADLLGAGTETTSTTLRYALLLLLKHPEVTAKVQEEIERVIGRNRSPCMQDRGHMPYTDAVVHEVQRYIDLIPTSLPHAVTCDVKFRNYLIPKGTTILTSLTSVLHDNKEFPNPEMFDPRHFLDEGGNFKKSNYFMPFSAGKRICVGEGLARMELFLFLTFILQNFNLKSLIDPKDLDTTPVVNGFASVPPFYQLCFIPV
Chain of CYP2D6 (P10635 whole entry): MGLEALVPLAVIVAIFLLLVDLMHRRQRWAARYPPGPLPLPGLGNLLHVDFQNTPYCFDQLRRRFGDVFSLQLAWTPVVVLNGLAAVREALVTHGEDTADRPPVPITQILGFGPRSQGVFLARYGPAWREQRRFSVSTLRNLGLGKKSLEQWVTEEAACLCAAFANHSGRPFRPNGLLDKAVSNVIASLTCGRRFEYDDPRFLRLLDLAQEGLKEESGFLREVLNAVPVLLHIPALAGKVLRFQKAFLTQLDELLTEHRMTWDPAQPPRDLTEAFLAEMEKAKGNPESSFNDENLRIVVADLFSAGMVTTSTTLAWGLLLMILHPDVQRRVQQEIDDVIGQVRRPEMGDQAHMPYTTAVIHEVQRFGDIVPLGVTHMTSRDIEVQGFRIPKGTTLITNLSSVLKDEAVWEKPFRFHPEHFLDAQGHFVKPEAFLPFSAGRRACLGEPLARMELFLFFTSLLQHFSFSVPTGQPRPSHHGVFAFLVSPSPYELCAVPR
Description for CYP1A2: Incubation without 30 min pre-incubation, 178.5 µL of liver microsomes working was pre-incubated in a 37 °C water bath for 30 min. After the pre-incubation, 1.5 μL of test compound or control compound working solution, 60 μL of substrate working solution, and 60 μL of NADPH working solution were added; then, the reaction mixture was mixed by pipetting up and down and then incubated at 37 °C for 10 min. Incubation with 30 min pre-incubation. Next, 1.5 μL of test compound or control compound working solutions and 60 μL of NADPH working solution were added into 178.5 μL of liver microsome working solution, then the reaction mixture was mixed by pipetting up and down and then pre-incubated at 37 °C for 30 min. After the pre-incubation, 60 μL of substrate working solution was added, then the reaction mixture was mixed by pipetting up and down and then incubated at 37 °C for 10 min. Following the incubation, 300 μL of quenching solution was added into the corresponding wells to terminate the reaction. All the above samples were vortexed for 1 min and centrifuged at 4000 rpm, 4 °C for 15 min. After centrifugation, the supernatant was removed for further LC-MS/MS analysis.
as §2
Description for CYP2D6: as §3, §4
Description for CYP3A4/5: as §1, §2

Take `OC[C@H]1O[C@@H](OCCc2ccc(O)cc2)[C@H](O)[C@@H](O)[C@@H]1O` [Salidroside]: the IC50 against OATP1B3 was over 100 µM; at CYP2C19 [1], over 50 µM; at CYP2D6, over 50 µM; on CYP1A2 (probe phenacetin, positive control not given, likely furafylline), over 50 µM; on CYP1A2 (read-out: IC50 after 30 min Preincubation with NADPH, probe phenacetin, positive control not given, likely furafylline), over 50 µM. For the same molecule, the “mean control activities (% of control activity) / inhibition of OATP1B3” value on OATP1B3 (100 µM) is reported as “unchanged; also recorded: no inhibition”. In addition, the fraction unbound at 5 h, 5 µM in “in vitro” came out at 0.985. Further, the IC50 at 10 min with CYP3A4/5 was over 50 µM. Moreover, the “IC50 Shift” value on CYP2C19 [2] is listed as “no shift”; at CYP1A2 (IC50 without/with preincubation, >[…] positive for TDI), “no shift”. The Cmax in series [3] (60 mg PO daily (~1 mg/kg), scaled from rat, read-out: predicted human total Cmax (predicted plasma concentration)) is under 2000 nM. In addition, the “predicted human unbound Cmax” value in series [3] (60 mg daily, Cmax x fu,plasma) is ~ 1.18 μM.
